In US20210369684A1 (MOUNT TAM THERAPEUTICS, INC., priority 2018, published 2021):
Where “and” joins values, the source holds several entries; their conditions need not be identical. Identical values can stand only once.

Columns and labels:
[1] = Whole blood concentrations after IP administration to mice (LC-MS/MS); type: in vivo, mouse; details: 10 mg/kg IP QD x 3 days; for Formula II Concentrations in Mouse Whole Blood: individual animals 10, 11, 12
Procedure: Shown below are whole blood concentrations following administration of the compound of Formula II to mice. The compound of Formula II was administered to mice at 2 mg/kg or 10 mg/kg for three days and the concentration of the compound in whole blood determined. These determinations were made using protein precipitation, liquid chromatography (LC), and mass spectrometry (MS/MS). Ten μl aliquots of whole blood and matrix calibration standards were distributed in a 96-well plate; 10 μl aliquots of blank matrix for matrix blanks and control blanks were included as controls. Ten μl of water was added to each sample followed by vortexing. One hundred sixty […] of internal standard was added to each sample except the matrix blanks; 160 μl 70:30 water:acetonitrile (ACN) was added to matrix blanks. This was followed by a […]. One hundred fifty μl of the resultant supernatant was then transferred to a new 96-well plate and the samples blown to dryness at 35° C. The resultant product was then reconstituted with 90 μl ACN.

[2] = Brain concentrations after IP administration to mice (LC-MS/MS); type: in vivo, mouse; details: for Formula II Concentrations in Mouse Brain / Formula II Concentrations in Mouse Brain, Mean: Day 3, 24.0 h
Procedure: To carry out these assays using brain homogenates, 20 uL of samples and matrix calibration standards into wells of a 96-well plate, and 10 uL of blank matrix allocated for matrix blanks and control blanks. 160 uL internal standard was then added to all samples except matrix blanks, and 160 uL ACN added to matrix blanks. Samples were then vortexed for 5 minutes and centrifuge for 5 minutes at >3500 rpm. 150 uL of the supernatant was then transferred to a new 96-well plate, and the plates blown down to dryness at 35° C., reconstituted with 90 uL of 70:30 water:acetonitrile (ACN) solution, covered and vortexed prior to analysis. LC and MS conditions were the same as described above for the whole blood analysis. […] The compound of Formula II was administered to mice at 2 mg/kg or 10 mg/kg for three days and the concentration of the compound in brain determined.

[3] = target: T1, TORC1 (Homo sapiens, UniProt P42345+P62942); assay: IC50 in PC3 cells, TORC1; type: cell-based
T1 construct: endogenous in cells; host or cells: PC3 cells

[4] = tested on: 6-OHDA injected mice; assay: Anti-TH immunohistochemistry, 6-OHDA-induced striatal denervation; type: in vivo, mouse
Procedure: Immunohistochemistry analysis using anti-tyrosine hydroxylase (TH) antibody was performed in mouse midbrain sections to quantify 6-OHDA-induced striatal denervation in mice injected with 6-OHDA and non-injected (control) sides of the brain. […] In contrast, both the 6-OHDA/rapamycin-treated and the 6-OHDA/Formula II-treated sides of the brain show increased staining with the anti-TH antibody, as indicated by the dark shading in those figures. FIG. 3B presents the mean and standard error of the mean (SEM) of the integrated density of anti-TH antibody staining in the striatum, as well as statistical analysis of the results for the groups of mice.

[5] = tested on: 6-OHDA injected mice; assay: Anti-TH immunohistochemistry, 6-OHDA-induced neuronal loss (TH-positive somas in SN); type: in vivo, mouse
Procedure: Immunohistochemistry analysis using anti-tyrosine hydroxylase (TH) antibody was also performed to quantify 6-OHDA-induced neuronal loss in mice injected with 6-OHDA and non-injected (control) sides of the brain. […] FIG. 4B presents the mean and standard error of the mean (SEM) as well as statistical analysis of the results.

[6] = target: T2, TORC2 (Homo sapiens, UniProt P42345+P62942); assay: IC50 in PC3 cells, TORC2; type: cell-based
T2 construct: endogenous in cells; host or cells: PC3 cells

[7] = tested on: 6-OHDA injected mice; assay: 6-OHDA cylinder test (motor performance, contralateral touches); type: in vivo, mouse; details: 10 mg/kg, FIG. 2B
Procedure: An analysis of the neuroprotective effects of the compound of Formula II on motor performance was performed using the 6-OHDA cylinder test (FIG. 2A) which evaluates spontaneous motor changes associated with dopamine depletion in the striatum of 6-OHDA injected mice. […] Control mice were administered the vehicle control only. […] The data is presented in FIG. 2B as mean and standard error of the mean (SEM). Statistical analyses as compared to baseline mice were performed using the one-way Anova test (*: p<0.05; n.s.: not significant). […] Data is presented as mean and SEM. Statistical analyses were performed using One-way Anova test (*: p<0.05; ***: p<0.001. n.s.: not significant.)

In the case of CO[C@H]1C[C@@H]2CC[C@@H](C)[C@@](O)(C2)C(=O)C(=O)N2CCCC[C@H]2C(=O)O[C@H]([C@H](C)C[C@H]2C[C@H]3C[C@@H]2C[C@@H]3O)CC(=O)[C@H](C)/C=C(\C)[C@@H](O)[C@@H](OC)C(=O)[C@H](C)C[C@H](C)/C=C/C=C/C=C/1C [Formula II, C37-[(1R,2S,4R,5S)-5-hyhroxybicyclo[2.2.1]heptane] rapamycin], the “Formula II Concentrations in Mouse Whole Blood, Mean” value ([1]; Day 1, 24.0 h, mean) is reported as 204 ng/mL, the “Formula II Concentrations in Mouse Whole Blood” value ([1]; Day 2, 1.00 h) is reported as 3410 ng/mL and 2970 ng/mL and 546 ng/mL and the “Formula II Concentrations in Mouse Whole Blood, Mean” value ([1]; Day 2, 1.00 h, mean) is reported as 2309 ng/mL. The “Formula II Concentrations in Mouse Whole Blood” value ([1]; Day 2, 2.00 h) was 3670 ng/mL and 3930 ng/mL and 2370 ng/mL, the “Formula II Concentrations in Mouse Whole Blood, Mean” value ([1]; Day 2, 2.00 h, mean) was 3323 ng/mL and the “Formula II Concentrations in Mouse Whole Blood” value ([1]; Day 2, 6.00 h) was 2770 ng/mL and 3390 ng/mL and 609 ng/mL. For the same compound, the “Formula II Concentrations in Mouse Whole Blood, Mean” value ([1]; Day 2, 6.00 h, mean) was 2256 ng/mL, the “Formula II Concentrations in Mouse Whole Blood” value ([1]; Day 2, 24.0 h) was 123 ng/mL and 336 ng/mL and 78.0 ng/mL and the “Formula II Concentrations in Mouse Whole Blood, Mean” value ([1]; Day 2, 24.0 h, mean) was 179 ng/mL. The “Formula II Concentrations in Mouse Whole Blood” value ([1]; Day 3, 1.00 h) was “AQL and 3420 ng/mL and 987 ng/mL”, the “Formula II Concentrations in Mouse Whole Blood, Mean” value ([1]; Day 3, 1.00 h, mean (animal 10 AQL)) was 2204 ng/mL and the “Formula II Concentrations in Mouse Whole Blood” value ([1]; Day 3, 2.00 h) was 5170 ng/mL and 3650 ng/mL and 777 ng/mL. The “Formula II Concentrations in Mouse Whole Blood, Mean” value ([1]; Day 3, 2.00 h, mean) was 3199 ng/mL, the “Formula II Concentrations in Mouse Whole Blood” value ([1]; Day 3, 6.00 h) was 3330 ng/mL and 2890 ng/mL and 730 ng/mL and the “Formula II Concentrations in Mouse Whole Blood, Mean” value ([1]; Day 3, 6.00 h, mean) was 2317 ng/mL. For the same compound, the “Formula II Concentrations in Mouse Whole Blood” value ([1]; Day 3, 24.0 h) was 223 ng/mL and 323 ng/mL and 124 ng/mL, the “Formula II Concentrations in Mouse Whole Blood, Mean” value ([1]; Day 3, 24.0 h, mean) was 223 ng/mL and the “concentrations in brain over time (in words)” value ([2]; 2 mg/kg or 10 mg/kg IP QD for three days, mice) was “sufficient concentrations in brain overtime”. The “Formula II Concentrations in Mouse Brain” value ([2]; Group 1, 2 mg/kg IP QD x 3 days, individual animals 7, 8, 9) was 33.7 ng/g and 27.6 ng/g and 31.4 ng/g, the “Formula II Concentrations in Mouse Brain, Mean” value ([2]; Group 1, 2 mg/kg IP QD x 3 days) was 30.9 ng/g and the “Formula II Concentrations in Mouse Brain” value ([2]; Group 2, 10 mg/kg IP QD x 3 days, individual animals 10, 11, 12) was 121 ng/g and 136 ng/g and 224 ng/g. For the same compound, the “Formula II Concentrations in Mouse Brain, Mean” value ([2]; Group 2, 10 mg/kg IP QD x 3 days) was 160 ng/g, the IC50 [3] was 0.099 nM and the “TORC1/TORC2 Selectivity” value ([3]; from IC50 values) was 50x. For the same compound, the “6-OHDA-induced striatal denervation (anti-TH staining) compared with rapamycin” value ([4]; 6-OHDA injected mice, FIG. 3A) was “decreased 6-OHDA-induced denervation as compared to rapamycin”, the “6-OHDA-induced striatal denervation (anti-TH staining) compared with vehicle control” value ([4]; 6-OHDA injected mice, FIG. 3A) was “decreased 6-OHDA-induced denervation as compared to vehicle control” and the “integrated density of anti-TH staining in striatum, p versus vehicle control” value ([4]; one-way ANOVA, FIG. 3B) was under 0.001. The “6-OHDA-induced neuronal loss (TH-positive somas, SN) compared with vehicle control” value ([5]; 6-OHDA injected mice, FIG. 4A) was “decreased 6-OHDA-induced neuronal loss as compared to vehicle control”, the “TH+ neuronal loss, p versus vehicle control” value ([5]; one-way ANOVA, FIG. 4B) was under 0.01 and the IC50 [6] was 5 nM. The “number of touches compared with rapamycin and vehicle control” value [7] was “clearly outperformed rapamycin and the vehicle control” and the “contralateral touches, difference from baseline (one-way Anova)” value ([7]; three days pre-treatment before 6-OHDA (80 μg)) was “non-significant difference from baseline”.
